Activity calls are given as the source filed them. The calls are words filed in the database; no cut-off is given here.
Tests used:
MDA-MB-231 [1] = assay: Induction of mitotic arrest in human MDA-MB-231 cells assessed as disordered spindle formation at 62.5 nM incubated for 12 hrs by alpha-tubulin/DAPI staining based confocal microscopic analysis; format: functional, cell-based
A549 [2] = assay: Induction of cell cycle arrest in RXRalpha knockout human A549 cells assessed as accumulation of cells at G2 phase at 125 nM incubated for 12 hrs by DAPI staining based flow cytometry analysis (reference value: 14.97%); format: functional
[3] = Cytotoxicity against human HaCaT cells assessed as inhibition of cell proliferation incubated for 72 hrs by MTT assay; format: toxicity, cell-based
MDA-MB-231 [4] = assay: Induction of cell cycle arrest in human MDA-MB-231 cells assessed as accumulation of cells at G2 phase at 62.5 nM incubated for 12 hrs by flow cytometry analysis (reference value: 15.91%); format: functional
MDA-MB-231 [5] = assay: Upregulation of phosphorylated RXRalpha protein level in human MDA-MB-231 cells at 125 to 500 nM incubated for 24 hrs in presence of thermosensitive alkaline phosphatase by Western blot analysis; format: functional, cell-based; conditions: dose 125-500 nM
A549 [6] = assay: Induction of apoptosis in human A549 cells assessed as dead cells at 62.5 nM incubated for 24 hrs by annexin V-FITC/PI staining based flow cytometry analysis (reference value: 0.75%); format: functional
MDA-MB-231 [7] = assay: Induction of apoptosis in human MDA-MB-231 cells assessed as reduction in Mcl-1 protein expression measured after 24 hrs by Western blot analysis; format: functional, cell-based; conditions: dose 7.8-500 nM
MDA-MB-231 [8] = assay: Induction of apoptosis in human MDA-MB-231 cells assessed as early apoptotic cells at 31.25 nM incubated for 24 hrs by annexin V-FITC/PI staining based flow cytometry analysis (reference value: 2.03%); format: functional
MDA-MB-231 [9] = assay: Induction of apoptosis in human MDA-MB-231 cells assessed as live cells at 62.5 nM incubated for 24 hrs by annexin V-FITC/PI staining based flow cytometry analysis (reference value: 91.3%); format: functional
MDA-MB-231 [10] = assay: Induction of apoptosis in human MDA-MB-231 cells assessed as early apoptotic cells at 250 nM incubated for 24 hrs by annexin V-FITC/PI staining based flow cytometry analysis (reference value: 2.03%); format: functional
MDA-MB-231 [11] = assay: Induction of apoptosis in human MDA-MB-231 cells assessed as dead cells at 250 nM incubated for 24 hrs by annexin V-FITC/PI staining based flow cytometry analysis (reference value: 0.69%); format: functional
[12] = target: T1, Retinoic acid receptor RXR-alpha (Homo sapiens, UniProt P19793); assay: Binding affinity to RXRalpha LBD (unknown origin) assessed as dissociation constant by fluorescence quenching analysis
T1 sequence (P19793 whole entry): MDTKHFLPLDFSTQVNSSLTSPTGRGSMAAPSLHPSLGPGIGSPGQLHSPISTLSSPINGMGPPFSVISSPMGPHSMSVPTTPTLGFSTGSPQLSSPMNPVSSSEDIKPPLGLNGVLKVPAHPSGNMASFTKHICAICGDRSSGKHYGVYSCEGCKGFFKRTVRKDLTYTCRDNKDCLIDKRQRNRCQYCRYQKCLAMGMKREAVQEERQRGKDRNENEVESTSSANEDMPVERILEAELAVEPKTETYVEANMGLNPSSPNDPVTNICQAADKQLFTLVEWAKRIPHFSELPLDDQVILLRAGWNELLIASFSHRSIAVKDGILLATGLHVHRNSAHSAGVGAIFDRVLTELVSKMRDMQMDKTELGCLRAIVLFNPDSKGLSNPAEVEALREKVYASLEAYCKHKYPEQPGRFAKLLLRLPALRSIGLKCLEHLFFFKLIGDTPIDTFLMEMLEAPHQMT

A549 [13] = assay: Antiproliferative activity against wild type human A549 cells assessed as inhibition of cell growth incubated for 72 hrs by MTT assay; format: functional, cell-based; conditions: A549, 72 h
MDA-MB-231 [14] = assay: Antitumor activity against human MDA-MB-231 cells xenografted in BALB/c nude mouse assessed as reduction in Ki67 protein expression at 25 mg/kg/day, ip administered for 15 days by immunohistochemical analysis; format: functional, organism-based; conditions: time 15.0 day
MDA-MB-231 [15] = assay: Induction of mitotic arrest in human MDA-MB-231 cells assessed as chromosome misalignment at 62.5 nM incubated for 12 hrs by alpha-tubulin/DAPI staining based confocal microscopic analysis; format: functional, cell-based
MDA-MB-231 [16] = assay: Induction of cell cycle arrest in human MDA-MB-231 cells assessed as accumulation of cells at S phase at 31.25 nM incubated for 12 hrs by flow cytometry analysis (reference value: 40.89%); format: functional
[17] = Toxicity in BALB/c mouse xenografted with human MDA-MB-231 cells assessed as heart damage at 25 mg/kg/day, ip administered for 15 days by H and E staining based analysis; format: organism-based; conditions: in vivo, 360 h, time 15 day
[18] = Toxicity in BALB/c mouse xenografted with human MDA-MB-231 cells assessed as lung damage at 25 mg/kg/day, ip administered for 15 days by H and E staining based analysis; format: organism-based; conditions: in vivo, 360 h, time 15 day
[19] = Tmax in Sprague-Dawley rat at 25 mg/kg, ip measured for 48 hrs by LC-MS/MS analysis; format: ADME, organism-based; conditions: in vivo
MDA-MB-231 [20] = assay: Induction of apoptosis in human MDA-MB-231 cells assessed as live cells at 250 nM incubated for 24 hrs by annexin V-FITC/PI staining based flow cytometry analysis (reference value: 91.3%); format: functional
[21] = Drug absorption in KM mouse at 25 mg/kg, ip measured after 0.5 to 2 hrs; format: ADME, organism-based; conditions: in vivo, time 0.5-2 hrs
A549 [22] = assay: Induction of cell cycle arrest in human A549 cells assessed as accumulation of cells at G1 phase at 62.5 nM incubated for 12 hrs by flow cytometry analysis (reference value: 59.57%); format: functional
A549 [23] = assay: Induction of cell cycle arrest in human A549 cells assessed as accumulation of cells at G1 phase at 15.625 nM incubated for 12 hrs by flow cytometry analysis (reference value: 59.57%); format: functional; conditions: 0.01562 µM
MCF7 = assay: Antiproliferative activity against human MCF7 cells assessed as inhibition of cell proliferation incubated for 72 hrs by MTT assay; format: functional, cell-based; conditions: MCF7, 72 h
MDA-MB-231 [24] = assay: Antitumor activity against human MDA-MB-231 cells xenografted in BALB/c nude mouse assessed as inhibition of tumor growth by measuring chromosome aberrations at 12.5 to 25 mg/kg/day, ip administered for 15 days; format: functional, organism-based; conditions: dose 12.5-25 mg/kg/day, time 15.0 day
A549 [25] = assay: Induction of cell cycle arrest in human A549 cells assessed as accumulation of cells at G1 phase at 31.25 nM incubated for 12 hrs by flow cytometry analysis (reference value: 59.57%); format: functional
MDA-MB-231 [26] = assay: Antiproliferative activity against human MDA-MB-231 cells assessed as cell viability rate at 5 uM incubated for 72 hrs by MTT assay relative to control; format: functional
[27] = Cytotoxicity against HK-2 cells assessed as inhibition of cell proliferation incubated for 72 hrs by MTT assay; format: toxicity, cell-based; conditions: human
[28] = Cytotoxicity against human L02 cells assessed as inhibition of cell proliferation incubated for 72 hrs by MTT assay; format: toxicity, cell-based
A549 [29] = assay: Induction of apoptosis in human A549 cells assessed as early apoptotic cells at 62.5 nM incubated for 24 hrs by annexin V-FITC/PI staining based flow cytometry analysis (reference value: 0.78%); format: functional

O=C(/C=C/c1ccccc1)Nc1cc(-c2ccnc(N3CCC(CO)CC3)c2)ccn1
Activity (MDA-MB-231 [1]): Active | Activity (A549 [2]): 45.99% | IC50 at 72 h [3]: 51 nM | Activity (MDA-MB-231 [4]): 81.68% | Activity (MDA-MB-231 [5]): inactive | Activity (A549 [6]): 2.76% | Activity (MDA-MB-231 [7]): Dose-Dependent Effect | Activity (MDA-MB-231 [8]): 2.24% | Activity (MDA-MB-231 [9]): 69.2% | Activity (MDA-MB-231 [10]): 20.2% | Activity (MDA-MB-231 [11]): 1.67% | Kd [12]: 147 nM | IC50 (A549 [13]): 196 nM | Activity (MDA-MB-231 [14]): Active | Activity (MDA-MB-231 [15]): Active | Activity (MDA-MB-231 [16]): 30.34% | Activity [17]: Non-Toxic | Activity [18]: Non-Toxic | Tmax [19]: 8.4 min | Activity (MDA-MB-231 [20]): 57.9% | Drug absorption [21]: Active | Activity (A549 [22]): 59.43% | Activity (A549 [23]): 59.06% | IC50 (MCF7): 2340 nM | Activity (MDA-MB-231 [24]): Active | Activity (A549 [25]): 58.84% | Activity (MDA-MB-231 [26]): 31.72% | IC50 at 72 h [27]: 372 nM | IC50 at 72 h [28]: 64 nM | Activity (A549 [29]): 11.4%
